Measurements from ChEMBL document CHEMBL5442219.

What was measured:
Details in all cases: Compound concentration 10 µM
[1] = target: 5-hydroxytryptamine receptor 2A (Homo sapiens) (UniProt P28223)
Description: PDSP Primary Binding target: HTR2A - Compounds are tested at 10 uM concentration, plate are incubated at room temperature in the dark for 90 minutes. Reaction are stopped by vacuum filtration onto 0.3% polyethyleneimine soaked filter mats using Filtermate harvester. Scintilation cocktail is then melted onto microwave-dried filters on a hot plate and the radio activity is counted in Microbia counter.

[2] = target: Muscarinic acetylcholine receptor M3 (Homo sapiens) (UniProt P20309)
Description: PDSP Primary Binding target: CHRM3 - Compounds are tested at 10 uM concentration, plate are incubated at room temperature in the dark for 90 minutes. Reaction are stopped by vacuum filtration onto 0.3% polyethyleneimine soaked filter mats using Filtermate harvester. Scintilation cocktail is then melted onto microwave-dried filters on a hot plate and the radio activity is counted in Microbia counter.

[3] = target: T1, Alpha-2C adrenergic receptor (Homo sapiens) (UniProt P18825)
T1 sequence (whole entry): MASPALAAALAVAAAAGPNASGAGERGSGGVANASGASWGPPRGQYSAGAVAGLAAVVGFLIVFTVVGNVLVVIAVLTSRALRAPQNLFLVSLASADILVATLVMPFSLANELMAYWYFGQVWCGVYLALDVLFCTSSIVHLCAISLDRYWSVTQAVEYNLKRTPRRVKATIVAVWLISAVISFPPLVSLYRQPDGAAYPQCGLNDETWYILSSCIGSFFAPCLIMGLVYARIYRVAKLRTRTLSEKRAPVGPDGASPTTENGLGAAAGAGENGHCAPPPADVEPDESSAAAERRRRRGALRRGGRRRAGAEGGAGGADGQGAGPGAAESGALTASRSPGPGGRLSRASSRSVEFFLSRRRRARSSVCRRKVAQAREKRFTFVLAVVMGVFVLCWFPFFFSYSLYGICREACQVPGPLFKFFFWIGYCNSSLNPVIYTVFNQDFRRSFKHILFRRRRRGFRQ
Description: PDSP Primary Binding target: ADRA2C - Compounds are tested at 10 uM concentration, plate are incubated at room temperature in the dark for 90 minutes. Reaction are stopped by vacuum filtration onto 0.3% polyethyleneimine soaked filter mats using Filtermate harvester. Scintilation cocktail is then melted onto microwave-dried filters on a hot plate and the radio activity is counted in Microbia counter.

[4] = target: Translocator protein (Homo sapiens) (UniProt P30536)
Sequence of Translocator protein (Homo sapiens) (P30536 whole entry): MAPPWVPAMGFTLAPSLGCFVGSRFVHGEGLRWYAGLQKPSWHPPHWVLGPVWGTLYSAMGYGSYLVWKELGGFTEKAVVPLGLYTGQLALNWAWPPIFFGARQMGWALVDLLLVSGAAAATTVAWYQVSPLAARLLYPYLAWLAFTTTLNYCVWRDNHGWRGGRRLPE
Description: PDSP Primary Binding target: TSPO - Compounds are tested at 10 uM concentration, plate are incubated at room temperature in the dark for 90 minutes. Reaction are stopped by vacuum filtration onto 0.3% polyethyleneimine soaked filter mats using Filtermate harvester. Scintilation cocktail is then melted onto microwave-dried filters on a hot plate and the radio activity is counted in Microbia counter.

[5] = target: Kappa-type opioid receptor (Homo sapiens) (UniProt P41145)
Sequence of Kappa-type opioid receptor (Homo sapiens) (P41145 whole entry): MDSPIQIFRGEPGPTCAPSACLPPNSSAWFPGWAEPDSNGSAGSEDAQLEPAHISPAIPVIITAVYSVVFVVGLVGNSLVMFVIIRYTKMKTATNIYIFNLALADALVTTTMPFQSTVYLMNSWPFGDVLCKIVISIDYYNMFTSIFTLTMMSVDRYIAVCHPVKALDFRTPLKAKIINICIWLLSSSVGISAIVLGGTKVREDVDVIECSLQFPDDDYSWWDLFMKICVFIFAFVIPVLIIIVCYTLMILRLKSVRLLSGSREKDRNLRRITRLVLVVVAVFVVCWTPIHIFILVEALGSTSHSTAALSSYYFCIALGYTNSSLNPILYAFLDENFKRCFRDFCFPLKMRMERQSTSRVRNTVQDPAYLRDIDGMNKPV
Description: PDSP Primary Binding target: OPRK1 - Compounds are tested at 10 uM concentration, plate are incubated at room temperature in the dark for 90 minutes. Reaction are stopped by vacuum filtration onto 0.3% polyethyleneimine soaked filter mats using Filtermate harvester. Scintilation cocktail is then melted onto microwave-dried filters on a hot plate and the radio activity is counted in Microbia counter.

[6] = target: Sigma intracellular receptor 2 (Homo sapiens) (UniProt Q5BJF2)
Sequence of Sigma intracellular receptor 2 (Homo sapiens) (Q5BJF2 whole entry): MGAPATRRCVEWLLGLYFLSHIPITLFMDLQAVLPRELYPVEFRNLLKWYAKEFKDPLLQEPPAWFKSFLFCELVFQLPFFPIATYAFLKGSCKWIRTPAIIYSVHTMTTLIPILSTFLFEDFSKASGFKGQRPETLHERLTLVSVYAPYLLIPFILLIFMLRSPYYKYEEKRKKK
Description: PDSP Primary Binding target: TMEM97 - Compounds are tested at 10 uM concentration, plate are incubated at room temperature in the dark for 90 minutes. Reaction are stopped by vacuum filtration onto 0.3% polyethyleneimine soaked filter mats using Filtermate harvester. Scintilation cocktail is then melted onto microwave-dried filters on a hot plate and the radio activity is counted in Microbia counter.

[7] = target: Beta-1 adrenergic receptor (Homo sapiens) (UniProt P08588)
Sequence of Beta-1 adrenergic receptor (Homo sapiens) (P08588 whole entry, looked up): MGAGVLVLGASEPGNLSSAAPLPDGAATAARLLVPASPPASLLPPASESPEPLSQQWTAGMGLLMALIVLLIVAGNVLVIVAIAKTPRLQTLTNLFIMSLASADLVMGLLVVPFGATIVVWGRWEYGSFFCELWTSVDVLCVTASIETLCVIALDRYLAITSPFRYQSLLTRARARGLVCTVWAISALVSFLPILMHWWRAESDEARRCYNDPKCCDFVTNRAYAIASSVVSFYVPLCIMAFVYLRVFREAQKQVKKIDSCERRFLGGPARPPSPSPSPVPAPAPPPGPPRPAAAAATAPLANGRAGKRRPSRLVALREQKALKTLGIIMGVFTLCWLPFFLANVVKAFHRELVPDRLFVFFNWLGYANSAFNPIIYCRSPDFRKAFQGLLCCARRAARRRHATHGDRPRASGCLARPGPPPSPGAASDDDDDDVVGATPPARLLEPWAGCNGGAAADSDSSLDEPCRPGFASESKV
Description: PDSP Primary Binding target: ADRB1 - Compounds are tested at 10 uM concentration, plate are incubated at room temperature in the dark for 90 minutes. Reaction are stopped by vacuum filtration onto 0.3% polyethyleneimine soaked filter mats using Filtermate harvester. Scintilation cocktail is then melted onto microwave-dried filters on a hot plate and the radio activity is counted in Microbia counter.

[8] = target: D(1A) dopamine receptor (Homo sapiens) (UniProt P21728)
Sequence of D(1A) dopamine receptor (Homo sapiens) (P21728 whole entry): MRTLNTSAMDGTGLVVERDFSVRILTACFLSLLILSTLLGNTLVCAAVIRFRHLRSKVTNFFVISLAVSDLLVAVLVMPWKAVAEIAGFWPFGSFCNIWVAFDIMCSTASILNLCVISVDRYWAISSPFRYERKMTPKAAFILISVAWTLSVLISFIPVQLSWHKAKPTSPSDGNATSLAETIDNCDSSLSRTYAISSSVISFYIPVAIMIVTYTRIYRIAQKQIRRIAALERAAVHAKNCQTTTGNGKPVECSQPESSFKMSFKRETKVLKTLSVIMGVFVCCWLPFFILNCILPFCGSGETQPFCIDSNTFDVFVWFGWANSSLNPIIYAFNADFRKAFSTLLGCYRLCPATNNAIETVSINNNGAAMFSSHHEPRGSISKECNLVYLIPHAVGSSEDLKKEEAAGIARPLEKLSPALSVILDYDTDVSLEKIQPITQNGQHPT
Description: PDSP Primary Binding target: DRD1 - Compounds are tested at 10 uM concentration, plate are incubated at room temperature in the dark for 90 minutes. Reaction are stopped by vacuum filtration onto 0.3% polyethyleneimine soaked filter mats using Filtermate harvester. Scintilation cocktail is then melted onto microwave-dried filters on a hot plate and the radio activity is counted in Microbia counter.

[9] = target: Histamine H3 receptor (Homo sapiens) (UniProt Q9Y5N1)
Sequence of Histamine H3 receptor (Homo sapiens) (Q9Y5N1 whole entry): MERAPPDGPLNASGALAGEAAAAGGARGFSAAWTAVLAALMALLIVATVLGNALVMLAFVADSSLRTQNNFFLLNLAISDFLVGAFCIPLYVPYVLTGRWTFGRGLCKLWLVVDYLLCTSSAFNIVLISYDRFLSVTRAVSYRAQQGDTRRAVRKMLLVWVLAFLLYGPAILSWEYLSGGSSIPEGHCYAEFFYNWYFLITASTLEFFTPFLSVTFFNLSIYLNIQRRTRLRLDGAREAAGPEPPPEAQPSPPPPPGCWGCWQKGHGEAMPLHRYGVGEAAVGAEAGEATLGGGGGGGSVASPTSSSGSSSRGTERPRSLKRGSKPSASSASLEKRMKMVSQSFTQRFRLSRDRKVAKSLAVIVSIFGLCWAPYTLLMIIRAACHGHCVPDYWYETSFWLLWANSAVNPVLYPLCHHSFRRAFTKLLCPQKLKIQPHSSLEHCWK
Description: PDSP Primary Binding target: HRH3 - Compounds are tested at 10 uM concentration, plate are incubated at room temperature in the dark for 90 minutes. Reaction are stopped by vacuum filtration onto 0.3% polyethyleneimine soaked filter mats using Filtermate harvester. Scintilation cocktail is then melted onto microwave-dried filters on a hot plate and the radio activity is counted in Microbia counter.

[10] = target: Mu-type opioid receptor (Homo sapiens) (UniProt P35372)
Sequence of Mu-type opioid receptor (Homo sapiens) (P35372 whole entry): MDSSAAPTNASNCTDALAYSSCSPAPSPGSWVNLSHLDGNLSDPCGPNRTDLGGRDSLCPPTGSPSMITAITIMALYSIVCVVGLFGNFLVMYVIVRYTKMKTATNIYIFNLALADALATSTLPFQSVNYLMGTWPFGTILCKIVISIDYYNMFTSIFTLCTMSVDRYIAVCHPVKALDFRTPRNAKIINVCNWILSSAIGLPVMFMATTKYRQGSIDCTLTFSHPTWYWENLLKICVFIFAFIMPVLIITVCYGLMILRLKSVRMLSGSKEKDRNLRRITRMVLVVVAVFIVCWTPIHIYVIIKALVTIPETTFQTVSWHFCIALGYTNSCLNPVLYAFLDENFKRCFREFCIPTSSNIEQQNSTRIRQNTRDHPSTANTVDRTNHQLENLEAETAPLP
Description: PDSP Primary Binding target: OPRM1 - Compounds are tested at 10 uM concentration, plate are incubated at room temperature in the dark for 90 minutes. Reaction are stopped by vacuum filtration onto 0.3% polyethyleneimine soaked filter mats using Filtermate harvester. Scintilation cocktail is then melted onto microwave-dried filters on a hot plate and the radio activity is counted in Microbia counter.

[11] = target: T2, Muscarinic acetylcholine receptor M1 (Homo sapiens) (UniProt P11229)
T2 sequence (whole entry): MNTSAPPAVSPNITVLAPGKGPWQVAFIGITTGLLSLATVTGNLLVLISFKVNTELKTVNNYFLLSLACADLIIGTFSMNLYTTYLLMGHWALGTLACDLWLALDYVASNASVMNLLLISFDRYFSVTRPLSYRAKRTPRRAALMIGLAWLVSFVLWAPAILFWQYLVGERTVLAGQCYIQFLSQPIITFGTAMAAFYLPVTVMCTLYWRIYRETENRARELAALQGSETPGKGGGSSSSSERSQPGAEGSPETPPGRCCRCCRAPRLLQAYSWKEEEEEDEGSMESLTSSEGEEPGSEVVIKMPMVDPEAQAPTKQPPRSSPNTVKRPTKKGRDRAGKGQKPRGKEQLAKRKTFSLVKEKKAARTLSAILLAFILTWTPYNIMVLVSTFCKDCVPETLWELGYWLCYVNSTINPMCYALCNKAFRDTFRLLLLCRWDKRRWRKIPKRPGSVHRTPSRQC
Description: PDSP Primary Binding target: CHRM1 - Compounds are tested at 10 uM concentration, plate are incubated at room temperature in the dark for 90 minutes. Reaction are stopped by vacuum filtration onto 0.3% polyethyleneimine soaked filter mats using Filtermate harvester. Scintilation cocktail is then melted onto microwave-dried filters on a hot plate and the radio activity is counted in Microbia counter.

[12] = target: Beta-2 adrenergic receptor (Homo sapiens) (UniProt P07550)
Sequence of Beta-2 adrenergic receptor (Homo sapiens) (P07550 whole entry, looked up): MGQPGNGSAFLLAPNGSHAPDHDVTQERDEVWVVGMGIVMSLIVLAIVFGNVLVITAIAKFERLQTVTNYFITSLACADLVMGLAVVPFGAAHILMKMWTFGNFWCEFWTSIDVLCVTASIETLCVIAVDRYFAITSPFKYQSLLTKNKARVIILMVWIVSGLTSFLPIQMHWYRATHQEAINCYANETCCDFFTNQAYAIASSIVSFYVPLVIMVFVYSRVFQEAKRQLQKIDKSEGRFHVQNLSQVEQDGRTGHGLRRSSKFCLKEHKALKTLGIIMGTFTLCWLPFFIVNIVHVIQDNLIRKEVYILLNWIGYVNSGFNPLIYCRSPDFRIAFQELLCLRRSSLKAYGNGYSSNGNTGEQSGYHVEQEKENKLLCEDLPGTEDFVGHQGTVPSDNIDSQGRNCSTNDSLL
Description: PDSP Primary Binding target: ADRB2 - Compounds are tested at 10 uM concentration, plate are incubated at room temperature in the dark for 90 minutes. Reaction are stopped by vacuum filtration onto 0.3% polyethyleneimine soaked filter mats using Filtermate harvester. Scintilation cocktail is then melted onto microwave-dried filters on a hot plate and the radio activity is counted in Microbia counter.

[13] = target: T3, Muscarinic acetylcholine receptor M4 (Homo sapiens) (UniProt P08173)
T3 sequence (whole entry): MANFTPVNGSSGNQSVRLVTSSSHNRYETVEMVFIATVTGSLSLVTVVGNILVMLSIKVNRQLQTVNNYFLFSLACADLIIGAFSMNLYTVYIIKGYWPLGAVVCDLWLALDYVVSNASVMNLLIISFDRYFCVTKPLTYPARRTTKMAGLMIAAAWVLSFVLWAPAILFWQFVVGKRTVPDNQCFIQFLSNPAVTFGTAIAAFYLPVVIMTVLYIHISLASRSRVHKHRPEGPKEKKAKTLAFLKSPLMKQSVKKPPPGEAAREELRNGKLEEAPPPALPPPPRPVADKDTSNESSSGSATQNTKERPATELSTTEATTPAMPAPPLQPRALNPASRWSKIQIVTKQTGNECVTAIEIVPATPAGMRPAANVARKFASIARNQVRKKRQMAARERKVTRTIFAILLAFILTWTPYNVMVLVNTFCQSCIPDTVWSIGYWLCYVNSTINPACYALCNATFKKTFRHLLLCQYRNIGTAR
Description: PDSP Primary Binding target: CHRM4 - Compounds are tested at 10 uM concentration, plate are incubated at room temperature in the dark for 90 minutes. Reaction are stopped by vacuum filtration onto 0.3% polyethyleneimine soaked filter mats using Filtermate harvester. Scintilation cocktail is then melted onto microwave-dried filters on a hot plate and the radio activity is counted in Microbia counter.

[14] = target: 5-hydroxytryptamine receptor 7 (Homo sapiens) (UniProt P34969)
Sequence of 5-hydroxytryptamine receptor 7 (Homo sapiens) (P34969 whole entry): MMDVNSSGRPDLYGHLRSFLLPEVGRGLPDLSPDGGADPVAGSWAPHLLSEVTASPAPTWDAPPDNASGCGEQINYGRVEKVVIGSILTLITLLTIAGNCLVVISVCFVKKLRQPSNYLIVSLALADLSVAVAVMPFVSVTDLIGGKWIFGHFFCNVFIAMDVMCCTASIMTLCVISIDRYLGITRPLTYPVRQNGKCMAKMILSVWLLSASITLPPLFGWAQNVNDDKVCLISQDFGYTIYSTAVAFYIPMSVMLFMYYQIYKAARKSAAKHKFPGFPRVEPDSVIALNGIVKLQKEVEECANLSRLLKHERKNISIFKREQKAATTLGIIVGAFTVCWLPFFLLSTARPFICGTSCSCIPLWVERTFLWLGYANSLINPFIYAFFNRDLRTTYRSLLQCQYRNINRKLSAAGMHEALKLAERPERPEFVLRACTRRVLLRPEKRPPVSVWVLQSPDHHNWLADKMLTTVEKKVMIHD
Description: PDSP Primary Binding target: HTR7 - Compounds are tested at 10 uM concentration, plate are incubated at room temperature in the dark for 90 minutes. Reaction are stopped by vacuum filtration onto 0.3% polyethyleneimine soaked filter mats using Filtermate harvester. Scintilation cocktail is then melted onto microwave-dried filters on a hot plate and the radio activity is counted in Microbia counter.

[15] = target: T4, D(4) dopamine receptor (Homo sapiens) (UniProt P21917)
T4 sequence (whole entry): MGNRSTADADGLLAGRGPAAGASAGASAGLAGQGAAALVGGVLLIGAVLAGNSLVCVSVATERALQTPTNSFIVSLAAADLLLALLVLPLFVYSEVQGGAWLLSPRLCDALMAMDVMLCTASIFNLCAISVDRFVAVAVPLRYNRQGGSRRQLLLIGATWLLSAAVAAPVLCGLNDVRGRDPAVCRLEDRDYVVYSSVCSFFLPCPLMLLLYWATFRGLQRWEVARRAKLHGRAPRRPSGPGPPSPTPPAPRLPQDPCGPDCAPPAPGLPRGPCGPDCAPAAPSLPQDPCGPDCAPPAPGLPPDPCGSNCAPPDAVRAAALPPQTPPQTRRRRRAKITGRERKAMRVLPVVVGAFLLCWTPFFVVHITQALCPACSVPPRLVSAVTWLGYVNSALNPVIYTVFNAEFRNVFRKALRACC
Description: PDSP Primary Binding target: DRD4 - Compounds are tested at 10 uM concentration, plate are incubated at room temperature in the dark for 90 minutes. Reaction are stopped by vacuum filtration onto 0.3% polyethyleneimine soaked filter mats using Filtermate harvester. Scintilation cocktail is then melted onto microwave-dried filters on a hot plate and the radio activity is counted in Microbia counter.

Sequence of Muscarinic acetylcholine receptor M3 (Homo sapiens) (P20309 whole entry, looked up): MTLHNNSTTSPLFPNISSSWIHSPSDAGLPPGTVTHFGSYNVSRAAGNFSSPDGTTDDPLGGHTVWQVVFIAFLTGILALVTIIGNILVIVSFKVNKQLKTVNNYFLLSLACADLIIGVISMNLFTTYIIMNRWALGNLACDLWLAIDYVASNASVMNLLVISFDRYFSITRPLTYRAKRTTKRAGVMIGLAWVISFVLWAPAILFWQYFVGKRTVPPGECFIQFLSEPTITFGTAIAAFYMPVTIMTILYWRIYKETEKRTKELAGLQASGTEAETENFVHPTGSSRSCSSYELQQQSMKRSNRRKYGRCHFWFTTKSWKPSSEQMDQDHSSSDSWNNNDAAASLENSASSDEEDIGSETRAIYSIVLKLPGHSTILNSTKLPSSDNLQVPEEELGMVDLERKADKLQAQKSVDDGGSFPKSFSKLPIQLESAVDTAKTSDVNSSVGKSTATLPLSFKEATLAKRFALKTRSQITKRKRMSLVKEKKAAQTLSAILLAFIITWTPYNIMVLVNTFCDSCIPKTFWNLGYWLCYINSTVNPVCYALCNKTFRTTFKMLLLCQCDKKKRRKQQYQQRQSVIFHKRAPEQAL
Sequence of 5-hydroxytryptamine receptor 2A (Homo sapiens) (P28223 whole entry): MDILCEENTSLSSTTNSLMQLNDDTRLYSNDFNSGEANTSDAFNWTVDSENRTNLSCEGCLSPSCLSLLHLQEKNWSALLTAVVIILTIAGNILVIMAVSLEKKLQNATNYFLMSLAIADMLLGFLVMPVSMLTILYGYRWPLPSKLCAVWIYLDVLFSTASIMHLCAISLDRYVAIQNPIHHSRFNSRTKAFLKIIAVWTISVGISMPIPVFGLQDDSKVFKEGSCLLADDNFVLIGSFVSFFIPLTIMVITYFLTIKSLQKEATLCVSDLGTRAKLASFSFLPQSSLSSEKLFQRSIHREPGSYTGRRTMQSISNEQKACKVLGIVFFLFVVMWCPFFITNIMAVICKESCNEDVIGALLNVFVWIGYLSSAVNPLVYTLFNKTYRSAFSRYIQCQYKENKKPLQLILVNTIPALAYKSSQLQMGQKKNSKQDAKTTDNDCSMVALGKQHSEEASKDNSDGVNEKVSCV

| Structure (SMILES) | inhibition [1] [%] | inhibition [2] [%] | inhibition [3] [%] | inhibition [4] [%] | inhibition [5] [%] | inhibition [6] [%] | inhibition [7] [%] | inhibition [8] [%] | inhibition [9] [%] | inhibition [10] [%] | inhibition [11] [%] | inhibition [12] [%] | inhibition [13] [%] | inhibition [14] [%] | inhibition [15] [%] |
| --- | --- | --- | --- | --- | --- | --- | --- | --- | --- | --- | --- | --- | --- | --- | --- |
| Cc1nnn(-c2ccc(-c3ccc(C4(C(=O)O)CC4)cc3)cc2)c1NC(=O)O[C@H](C)c1ccccc1 | 2.49 | -2.63 | 2.71 | 3.3 | -4.59 | -0.49 | -7.78 | -4.64 | -3.65 | -8.07 | 7.62 | 6.66 | – | – | – |
| COc1ccnc(N2CCC3(CCCN(Cc4c[nH]c5ccccc45)C3=O)CC2)n1 | 7.53 | – | 4.51 | 75.8 | 6.61 | 34.7 | – | -4.13 | 0.7 | -4.41 | 0.43 | 11.9 | -7.79 | 8.03 | – |
| COC1CCN(c2cccc(-c3cc(NC(C)=O)nc(-n4nc(C)cc4C)n3)n2)CC1 | 1.6 | – | 26.3 | 70.3 | – | 36.3 | 41.4 | -3.87 | 1.55 | 27.3 | 1.9 | 2.28 | – | 0.28 | -2.89 |
| Cc1csc(NC(=O)c2cc(F)cc(Oc3cncnc3)c2)n1 | 1.92 | -2.7 | 6.42 | 37.4 | 18.9 | 41.8 | -2.16 | -5.62 | 2.1 | -8.28 | -0.94 | 8.79 | -5.33 | 15.3 | 23.6 |
| Cc1c(C2=CCN(C(=O)N(C)C(C)C)CC2)nnn1-c1cccnc1F | 85.9 | 1.95 | 9.65 | -1.56 | – | 64.4 | -5.97 | – | -3.59 | 36.2 | 2.87 | -6.84 | -9.61 | -7.92 | 26.9 |
